What was measured:
Assay type in all cases: cell-based
[1] = tested on: Botritis cinerea; assay: In vitro mycelial/spore growth on potato-sucrose-agar, percent disease control (BC); settings: read-out: % controlled, BC
Experimental: (§1) The compounds of this invention were dissolved respectively in acetone in an amount equal to 10% of the final volume and then in purified water at the concentration of 100 ppm and 50 ppm.
(§2) Each of the solution was mixed with potato-sucrose-agar medium in 6" petri dish and one of the fungi was spotted at the center of the dish. The dish was incubated in growth room for several days. The percent disease control was derived from the radii of spore growth. The screening tests in vitro condition are well-known to those skilled in the art.
(§3) The following fungi were used for the screening.
10) Bo. ci.; Botritis cinerea

[2] = tested on: Rhizopus sp.; assay: In vitro mycelial/spore growth on potato-sucrose-agar, percent disease control (RS, second column); settings: read-out: % controlled, RS; for inhibition of growth at 50 ppm: Rhizopus sp.; for inhibition of growth at 200 ppm: Rhizopus
Experimental: as §1, §2, §3
9) Rhi. sp.; Rhizopus sp.

[3] = tested on: Botryosphaeri; assay: In vitro mycelial/spore growth on potato-sucrose-agar, percent disease control (BD); settings: read-out: % controlled, BD
Experimental: as §1, §2, §3
4) Bo. do (Ma); Botryosphaeri

[4] = tested on: Rhizoctonia solani; assay: In vitro mycelial/spore growth on potato-sucrose-agar, percent disease control (RS, first column); settings: read-out: % controlled, RS
Experimental: as §1, §2, §3
7) Rhi. so.; Rhizoctonia solani

[5] = tested on: GC; assay: In vitro mycelial/spore growth on potato-sucrose-agar, percent disease control (GC); settings: read-out: % controlled, GC; for inhibition of growth at 50 ppm: GC
Experimental: as §1, §2, §3

[6] = tested on: Phytophthora capsisi; assay: In vitro mycelial/spore growth on potato-sucrose-agar, percent disease control (PC); settings: read-out: % controlled, PC
Experimental: as §1, §2, §3
2) Phy. ca.; Phytophthora capsisi

[7] = tested on: Fusarium moniliforme; assay: In vitro mycelial/spore growth on potato-sucrose-agar, percent disease control (FM); settings: Fusarium verticillioides, Fusarium moniliforme, read-out: % controlled, FM
Experimental: as §1, §2, §3
8) Fu. mo.; Fusarium moniliforme

[8] = tested on: Pyricalaria oryzae; assay: In vitro mycelial/spore growth on potato-sucrose-agar, percent disease control (PO); settings: read-out: % controlled, PO
Experimental: as §1, §2, §3
6) Py. or.; Pyricalaria oryzae

| Compound | inhibition of growth at 50 ppm [1] [%] | inhibition of growth at 200 ppm [1] [%] | inhibition of growth at 50 ppm [2] [%] | inhibition of growth at 200 ppm [2] [%] | inhibition of growth at 50 ppm [3] [%] | inhibition of growth at 200 ppm [3] [%] | inhibition of growth at 50 ppm [4] [%] | inhibition of growth at 200 ppm [4] [%] | inhibition of growth at 50 ppm [5] [%] | inhibition of growth at 200 ppm [5] [%] | inhibition of growth at 50 ppm [6] [%] | inhibition of growth at 200 ppm [6] [%] | inhibition of growth at 50 ppm [7] [%] | inhibition of growth at 200 ppm [7] [%] | inhibition of growth at 50 ppm [8] [%] | inhibition of growth at 200 ppm [8] [%] |
| --- | --- | --- | --- | --- | --- | --- | --- | --- | --- | --- | --- | --- | --- | --- | --- | --- |
| FC(F)(F)c1ccc([Si]2(Cn3cncn3)CCCC2)cc1 [1-(4-trifluoromethyl)-1-(1H-1,2,4-triazole-1-yl)methyl-1-silacyclopentane] | 96 | 100 | 69 | 72 | 96 | 100 | 95 | 99 | 100 | 100 | 70 | 79 | 79 | 100 | 100 | 100 |
| COc1ccc([Si]2(Cn3cncn3)CCCCC2)cc1 [1-(4-methoxyphenyl)-1-(1H-1,2,4-triazole-1-yl)methyl-1-silacyclohexane] | 69 | 89 | 65 | 79 | 85 | 100 | 96 | 100 | 100 | 100 | 49 | 93 | 81 | 92 | 100 | 100 |
| COc1ccc([Si]2(C(C)n3cncn3)CCCCC2)cc1 (stereo not drawn) [1-(4-methoxoyphenyl)-1-[α-(1H-1,2,4-triazole-1-yl)ethyl]-1-silacyclohexane] | 64 | 100 | 49 | 60 | 92 | 100 | 93 | 100 | 100 | 100 | 55 | 85 | 94 | 98 | 100 | 100 |
| c1ccc(-c2ccc([Si]3(Cn4cncn4)CCCCC3)cc2)cc1 [1-(4-biphenyl)-1-(1H-1,2,4-triazole-1-yl)methyl-1-silacyclohexane] | 100 | 100 | 72 | 94 | 100 | 100 | 71 | 80 | 100 | 100 | 92 | 100 | 100 | 100 | 100 | 100 |
| c1ccc(-c2ccc([Si]3(Cn4cncn4)CCCC3)cc2)cc1 [1-(4-biphenyl)-1-(1H-1,2,4-triazole-1-yl)methyl-1-silacyclopentane] | 15 | 30 | 69 | 72 | 72 | 72 | 89 | 93 | 100 | 100 | 68 | 100 | 47 | 100 | 100 | 100 |
| CC(n1cncn1)[Si]1(c2ccc(F)cc2F)CCCCC1 (stereo not drawn) [1-(2,4-difluorophenyl)-1-[α-(1H-1,2,4-triazole-1-yl)ethyl]-1-silacyclohexane] | 100 | 100 | 53 | 79 | 100 | 100 | 96 | 100 | 100 | 100 | 82 | 100 | 100 | 100 | 100 | 100 |
| CC(n1cncn1)[Si]1(c2ccc(C(F)(F)F)cc2)CCCC1 (stereo not drawn) [1-(4-trifluoromethyl)-1-[α-(1H-1,2,4-triazole-1-yl)ethyl]-1-silacyclopentane] | 94 | 100 | 56 | 75 | 90 | 100 | 92 | 100 | 100 | 100 | 86 | 98 | 73 | 99 | 100 | 100 |
| COc1ccc([Si]2(C(C)n3cncn3)CCCC2)cc1 (stereo not drawn) [1-(4-methoxyphenyl)-1-[α-(1H-1,2,4-triazole-1-yl)ethyl]-1-silacyclopentane] | 81 | 95 | 59 | 80 | 71 | 96 | 100 | 100 | 100 | 100 | 50 | 90 | 94 | 99 | 100 | 100 |
| Clc1ccc([Si]2(Cn3cncn3)CCCCC2)c(Cl)c1 [1-(2,4-dichlorophenyl)-1-(1H-1,2,4-triazole-1-yl)methyl-1-silacyclohexane] | 97 | 100 | 50 | 72 | 98 | 100 | 20 | 50 | 100 | 100 | 65 | 87 | 100 | 100 | 100 | 100 |
| CCOc1ccc([Si]2(C(C)n3cncn3)CCCC2)cc1 (stereo not drawn) [1-(4-ethoxyphenyl)-1-[α-(1H-1,2,4-triazole-1-yl)ethyl]-1-silacyclopentane] | 79 | 94 | 63 | 90 | 70 | 95 | 100 | 100 | 100 | 100 | 43 | 91 | 93 | 100 | 100 | 100 |

From patent publication US5455356A, “Fungicidal 1-aryl-1-[α-(triazolyl)alkyl]-1-silacycloalkanes and their preparation methods” (priority 1993, dated 1995)
